Data: PubChem BioAssay (NCI)
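These data come from cells grown in 96-well plates and exposed to compound for 48 hours at five concentrations. GI50 = concentration required for 50% inhibition of growth. TGI: concentration producing complete growth inhibition.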

Columns and labels:
Assay in all cases: growth of human tumour cells (NCI), 48 h
SNB-19 CNS = tested on: SNB-19 CNS
KM12 colon = tested on: KM12 colon
SN12C renal = tested on: SN12C renal
NCI-H460 lung = tested on: NCI-H460 lung
UO-31 renal = tested on: UO-31 renal
UACC-257 melanoma = tested on: UACC-257 melanoma
SK-MEL-5 melanoma = tested on: SK-MEL-5 melanoma
OVCAR-8 ovarian = tested on: OVCAR-8 ovarian
MDA-MB-231 breast = tested on: MDA-MB-231 breast
HS 578T breast = tested on: HS 578T breast

Structure (SMILES) | GI50 (SNB-19 CNS) [µM] | TGI (SNB-19 CNS) [µM] | GI50 (KM12 colon) [µM] | TGI (KM12 colon) [µM] | GI50 (SN12C renal) [µM] | TGI (SN12C renal) [µM] | GI50 (NCI-H460 lung) [µM] | TGI (NCI-H460 lung) [µM] | GI50 (UO-31 renal) [µM] | TGI (UO-31 renal) [µM] | GI50 (UACC-257 melanoma) [µM] | TGI (UACC-257 melanoma) [µM] | GI50 (SK-MEL-5 melanoma) [µM] | TGI (SK-MEL-5 melanoma) [µM] | GI50 (OVCAR-8 ovarian) [µM] | TGI (OVCAR-8 ovarian) [µM] | GI50 (MDA-MB-231 breast) [µM] | TGI (MDA-MB-231 breast) [µM] | GI50 (HS 578T breast) [µM] | TGI (HS 578T breast) [µM]
CCC[CH2][Ge]([CH2]CCC)([CH2]CCC)[O]C(=O)C(OC(C)=O)c1ccccc1 (stereo not drawn) | 12 | 36.9 | 2.98 | 22.1 | 7.7 | 24.9 | 1.24 | 20 | 1.5 | 18.5 | 0.246 | 11.5 | 0.774 | 11.6 | 9.77 | 22.8 |  |  |  | 
COc1ccc2cc(C(=O)/C=C/c3ccco3)ccc2c1 | > 100 | > 100 | 34.5 | > 100 | 31.3 | > 100 | 22.7 | 52.6 | 37.5 | > 100 | 26.1 | 59.6 | 12.2 | 31.1 | 34.2 | > 100 | 29.2 | > 100 |  | 
N#Cc1nc(Nc2ccc(Cl)cc2)sc1N |  | > 100 |  | > 86.5 |  | > 69.1 |  | > 74.7 |  | 26.8 |  | 31.1 |  | 6.41 |  | > 79.4 |  |  |  | 
COC(=O)c1cc(NC(=O)CN(CCN(CC(=O)O)CC(=O)Nc2ccc(O)c(C(=O)OC)c2)CC(=O)O)ccc1O | 41.9 | > 100 | > 100 | > 100 | 63.8 | > 100 | 28.3 | > 100 | 42.7 | > 100 |  |  | 47.2 | > 100 | 77.3 | > 100 | > 100 | > 100 | > 100 | > 100
Cc1cc2c(=O)c3ccccc3oc2c(C#N)c1C |  | > 100 |  | > 100 |  |  |  | > 100 |  | > 100 |  | > 100 |  | > 100 |  | > 100 |  |  |  | > 100
N=C(N)c1ccc(-c2ccc(-c3ccc(Cl)c(Cl)c3)o2)nc1 | 1.84 | 3.7 |  |  | 1.74 | 3.52 |  |  | 1.5 | 2.97 |  |  | 1.74 | 3.15 |  |  | 1.64 | 3.38 | 1.89 | 4.36
CCOC1=C2C(C)(CCC3[C@@]4(C)C=CC(=O)C(C)(C)C4CC(O)[C@@]23C)C(c2ccoc2)C1=O (stereo partly drawn) |  | > 100 |  | 46.6 |  | 58 |  | 28.4 |  | 29.1 |  | 99.3 |  | 29.5 |  | 44.3 |  |  |  | 
N#C/C(=C\c1ccc([N+](=O)[O-])s1)c1nc2cc(Br)ccc2s1 | 0.369 | > 100 | 0.399 | 2.47 | 0.201 | 0.576 | 0.286 | 0.845 | 0.142 | 0.461 |  |  | 0.167 | 0.311 | 0.246 | 0.805 | 0.179 | 0.43 | 0.804 | 9.28
COc1cc(CCNc2nc3cc(N)cc(N)c3nc2-c2ccccc2)cc(OC)c1 | 5.92 | 18.6 | 1.69 | 3.54 | 1.67 | 3.12 | 3.25 | 10.9 | 1.94 | 3.78 | 1.76 | 3.61 | 1.79 | 3.36 |  |  | 1.57 | 4.55 | 2.43 | 5.85
CCCN(CCC)c1ccc(/C=N/NC(=O)c2cccnc2)cc1 | 53.8 | > 100 | 20.3 | > 100 | 40.4 | > 100 | 30.3 | > 100 | 43.3 | > 100 | 31 | > 100 | 18.2 | 42 | 31.3 | > 100 |  |  | 22 | 87.1
CCCCC/C=C\C/C=C/CCCCCCCCNC(=O)Nc1ccc([N+](=O)[O-])cc1 | 9.07 | > 100 | 6.96 | > 100 | 8.12 | > 100 | 21.9 | > 100 | 24.3 | > 100 | 40.7 | > 100 | 14.8 | 32.4 | 8.82 | > 100 | 13.9 | > 100 |  | 
C/C=C/C=C\C(=O)C1c2cccc(O)c2C(=O)c2c(O)cc(C)cc21 (stereo not drawn) |  | 2.5 |  | 1.51 |  | 5.74 |  | 1.47 |  | 3.08 |  | 3.46 |  | 2.69 |  | 3.19 |  |  |  | 
